Patent publication US20130109664A1 (priority 2011, published 2013)
Like-named read-outs stand apart in the source and are kept apart here.

How the values were obtained:
Malassezia furfur = assay: Intrinsic anti-Malassezia potency, growth inhibition by optical density; format: cell-based; conditions: for IC50: M. furfur in mDixon medium, overnight at 31°, OD 600 nm; for independent anti-fungal effectiveness (in words): comment on Table 1 data
Protocol: To measure the growth inhibition properties of test materials against Malassezia, we carried out the following protocol.
Starting cultures are prepared by incubating with shaking at 31°. Cells (5 ml of culture) are collected by centrifugation and suspended in 50 ml fresh mDixon medium. […] The plates are shaken vigorously on a Heidolph Titramax 100 overnight at 31°. To increase the humidity, water-soaked cotton batting is placed over the plates.
As a control, the optical density of untreated M. furfur is measured after overnight incubation. As another control, the optical density of the starting culture is measured. The difference between these optical densities represents the amount of growth of M. furfur.

[1] = cited from earlier work
M. furfur 7982 = assay: Fractional Inhibitor Concentration (FIC) of chelator in combination with ZPT; format: cell-based, Malassezia furfur; conditions: average of duplicate plates, 2 days at 33° C., ≦0.5 synergistic, >0.5-1.0 additive
Text: Fractional Inhibitor Concentration (FIC) is a conventional methodology for evaluating antimicrobial interactions. In an embodiment of the present invention, an FIC is used to determine combinatorial effects of two chemicals on anti-Malassezia activity in a tissue culture setting.
• 1. Each FIC assay is run in duplicate. • 2. Low levels of M. furfur 7982 cells are inoculated into each well of a 96 well plate. • 3. Chemical #1 (in our assays, this is always ZPT) is titrated (2× concentration reductions) from right to left across each row of the plate, starting at 12.5 ppm final concentration and ending at 0 ppm. • 4. […] Plates are incubated at 33° C., 60% RH for 2 days with agitation. • 6. Optical densities (OD's) are then determined using a spectrophotometer.
• 1. […] Lack of inhibition of growth is determined if the OD>0.6, and the well is labeled with a ‘+’. • 3. The lowest concentration value of chemical #1, both by itself and with the lowest concentration of chemical #1 which boosts chemical #2's potency, that inhibit growth are determined (see FIG. 1). • 4. Likewise, the lowest concentration of chemical #2, both by itself and with the lowest concentration of chemical #2 that boosts chemical #1's potency, that inhibit growth are determined (see FIG. 1). • 5. The FIC value for the duplicate plates is determined using the calculations below:
[formula] [formula] • 6. The average FIC value is then determined, and the combinatorial effect of the two chemicals is classified according to the chart below: […]

[2] = Iron affinity, stepwise association constant log K1; format: physicochemical
Text: The strength of the association between a ligand and metal, in this case iron, can be termed iron affinity.
The affinity constant is conveniently expressed as the logarithm (log K1) and the larger the magnitude of this number, the stronger the association between the metal (iron ions in this case) and ligand.

[3] = source (a) NIST Standard Reference Database 46
[4] = (e) interpolated from correlation between Cu2+ and Fe2+ data
[5] = (c) interpolated from correlation between Zn2+ and Fe2+ data
[6] = (d) interpolated from correlation between Fe3+ and Fe2+ data
[7] = source (b) IUPAC Stability Constant Database

## O=C(O)CN(CC(=O)O)[C@@H]1CCCC[C@H]1N(CC(=O)O)CC(=O)O (relative stereo) [trans-1,2-Cyclohexylenedinitrilotetraacetic acid]
Malassezia furfur
  IC50: 500 µM
[1]; [3]
  Iron Affinity, log K1 Fe2+, pH = 7.4: 14.0

## Cc1c([O-])c(=O)ccn1C.Cc1c([O-])c(=O)ccn1C.[Zn+2] [1,2-Dimethyl-3-hydroxy-4-pyridone, Zinc salt]
M. furfur 7982
  FIC (Fractional Inhibitory Concentration): 0.5

## C1CNCCNCCNCCNCCNCCN1 [1,4,7,10,13,16-Hexaazacyclooctadecane]
[2]; [4]
  Iron Affinity, log K1 Fe2+, pH = 7.4: 13.3

## O=C(O)CN1CCCN(CC(=O)O)CCN(CC(=O)O)CCCN(CC(=O)O)CC1 [1,4,8,11-Tetraazacyclotetradecane-N,N′,N″,N″′-tetraacetic acid]
Malassezia furfur
  IC50: > 500 µM
[1]; [3]
  Iron Affinity, log K1 Fe2+, pH = 7.4: 9.9

## S=C(N=Nc1ccccc1)NNc1ccccc1 [1,5-Diphenyl-1,2,4,5-tetraazapent-1-en-3-thione]
[1]; [3]
  Iron Affinity, log K1 Fe2+, pH = 7.4: 6.5

## c1cnc2c(c1)ccc1cccnc12 [1,10-Phenanthroline]
[1]; [3]
  Iron Affinity, log K1 Fe2+, pH = 7.4: 5.9

## Oc1ccc2ccccc2c1N=Nc1nccs1 [1-(2-Thiazoylazo)-2-naphthol]
[2]; [5]
  Iron Affinity, log K1 Fe2+, pH = 7.4: 6.6
Malassezia furfur
  IC50: 250 µM

## CC(C)c1cccc(O)c(=O)c1 [1-Hydroxy-4-(1-methylethyl)cyclohepta-3,5,7-trien-2-one]
[2]; [5]
  Iron Affinity, log K1 Fe2+, pH = 7.4: 4.9
Malassezia furfur; Malassezia furfur
  IC50: 65 µM

## c1ccc(-c2cccc(-c3ccccn3)n2)nc1 [2,2′: 6′,2″-terpyridine]
[2]; [5]
  Iron Affinity, log K1 Fe2+, pH = 7.4: 5.0

## Cc1ccc2ccc3ccc(C)nc3c2n1 [2,9-dimethyl-1,10-phenanthroline]
[2]; [5]
  Iron Affinity, log K1 Fe2+, pH = 7.4: 3.3

## NCCc1ccccn1 [2-(2-aminoethyl)-pyridine]
[2]; [6]
  Iron Affinity, log K1 Fe2+, pH = 7.4: 5.2

## Cc1c(O)c(=O)ccn1C [3-Hydroxy-1,2-dimethyl-4(1H)-pyridone]
[2]; [5]
  Iron Affinity, log K1 Fe2+, pH = 7.4: 3.9

## Oc1ccc(N=Nc2nccs2)c(O)c1 [4-(2-thiazolylazo)-resorcinol]
[1]; [3]
  Iron Affinity, log K1 Fe2+, pH = 7.4: 3.2

## Oc1c(Cl)cc(Cl)c2cccnc12 [5,7-dichloro-8-hydroxyquinoline]
[1]; [7]
  Iron Affinity, log K1 Fe2+, pH = 7.4: 7.2

## Oc1c(I)cc(Cl)c2cccnc12 [5-Chloro-8-hydroxy-7-iodoquinoline]
[1]; [7]
  Iron Affinity, log K1 Fe2+, pH = 7.4: 7.0

## Oc1cccc2cccnc12 [8-hydroxyquinoline]
[2]; [5]
  Iron Affinity, log K1 Fe2+, pH = 7.4: 4.9

## O=C(O)CN(CCN(CC(=O)O)CC(=O)O)CC(=O)O [Ethylenediaminetetraacetic acid]
Malassezia furfur; Malassezia furfur
  IC50: > 500 µM
Malassezia furfur
  independent anti-fungal effectiveness (in words): not to be effective

## CCC(NCCNC(CC)C(=O)O)C(=O)O (stereo not shown) [Ethylenediiminodi-2-butanoic acid]
[2]; [5]
  Iron Affinity, log K1 Fe2+, pH = 7.4: 6.3
Malassezia furfur
  IC50: > 500 µM

## c1ccc(CN(CCN(Cc2ccccn2)Cc2ccccn2)Cc2ccccn2)nc1 [N,N,N′,N-tetrakis(2-pyridylmethyl) ethylenediamine]
Malassezia furfur
  IC50: 71 µM
[1]; [3]
  Iron Affinity, log K1 Fe2+, pH = 7.4: 14.2

## O=C(O)CN(CCO)CCO [N,N-Bis(2-hydroxyethyl)glycine]
[2]; [5]
  Iron Affinity, log K1 Fe2+, pH = 7.4: 3.6

## O=C1c2cccc3cccc(c23)C(=O)N1O [N,N-Naphthaloylhydroxylamine]
M. furfur 7982
  FIC (Fractional Inhibitory Concentration): 0.8

## CCCCCCCCOc1cccc(=O)n1O.NCCO [N-Hydroxy-6-octyloxypyridine-2(1H)one, ethanolamine salt]
[2]; [6]
  Iron Affinity, log K1 Fe2+, pH = 7.4: 5.4
Malassezia furfur
  IC50: 54.6 µM
M. furfur 7982
  FIC (Fractional Inhibitory Concentration): 0.62

## CCCCCCCCOc1cccc(=O)n1[O-].CCCCCCCCOc1cccc(=O)n1[O-].[Zn+2] [N-Hydroxy-6-octyloxypyridine-2(1H)one, zinc salt]
M. furfur 7982
  FIC (Fractional Inhibitory Concentration): 0.7

## O=C(O)c1ccccc1O [Salicylic acid]
[2]; [4]
  Iron Affinity, log K1 Fe2+, pH = 7.4: −3.0
Malassezia furfur; Malassezia furfur
  IC50: > 500 µM

## Cc1occc(=S)c1O [Thiomaltol]
M. furfur 7982
  FIC (Fractional Inhibitory Concentration): 0.8

## [O-]n1ccccc1=S.[O-]n1ccccc1=S.[Zn+2] [Zinc Pyrithione, zinc salt of 1-hydroxy-2-pyridinethione]
[2]; [5]
  Iron Affinity, log K1 Fe2+, pH = 7.4: 4.3

## NCCC(=O)N[C@@H](Cc1c[nH]cn1)C(=O)O [beta-Alanyl-L-histidine]
[2]; [5]
  Iron Affinity, log K1 Fe2+, pH = 7.4: 1.3

## O=c1cc(CO)occ1O [kojic acid]
[2]; [5]
  Iron Affinity, log K1 Fe2+, pH = 7.4: 3.7

## Cc1occc(=O)c1O [maltol]
[2]; [5]
  Iron Affinity, log K1 Fe2+, pH = 7.4: 6.4
Malassezia furfur
  independent anti-fungal effectiveness (in words): too hydrophilic to be an effective anti-fungal material independently

## Benzohydroxamic acid, Zinc Salt
M. furfur 7982
  FIC (Fractional Inhibitory Concentration): 0.3

## Maltol, Zinc salt
M. furfur 7982
  FIC (Fractional Inhibitory Concentration): 0.1

## Thiomaltol, Zinc salt
M. furfur 7982
  FIC (Fractional Inhibitory Concentration): 0.5
